Experimental data reported in US20240318220A1, “IONIC LIQUIDS BASED ON UNNATURAL AMINO ACIDS, PREPARATION METHODS THEREOF, AND APPLICATIONS THEREOF” (PEKING UNIVERSITY, priority 2022, published 2024).

Assays:
[1] = Serum concentration curve of NAEK after oral administration; assay type: in vivo; conditions: mice, 30 mg NAEK or equimolar amount
Experimental: FIG. 5B. […] The NAEK content in the serum reached a maximum of about 1.6 μg/mL two hours after oral administration, as evidenced by the curve in the NAEK-aqueous solution group. Subsequently, 8 hours after oral administration, the NAEK content in the serum diminished to nearly zero, indicating rapid metabolism of NAEK, which could be completed in 6 hours. […] Furthermore, only 22 hours after oral administration, the serum NAEK content approached zero, indicating complete metabolism within approximately […].
Two experimental groups were set, with 12 mice in each group. In one group, each mouse was orally administered with 30 mg NAEK aqueous solution, and in the other group, each mouse was orally administered with an equimolar amount of Ch-NAEK. Blood was collected from the orbital plexus of the mice at 1 h, 2 h, 4 h, 6 h, 8 h, 9 h, 10 h, 14 h, 19 h, and 22 h time points to plot the NAEK serum concentration in mice as function of time (FIG. 5B).

mdx mice = test: Full-length expression of Dystrophin in muscle tissue by immunoblotting; assay type: in vivo; conditions: mdx mice with AAV-MmpylRS-tRNA, oral, 2 weeks
Experimental: FIG. 12. Flow Diagram of Treating DMD Disease in Mdx Mouse Model Using Ionic Liquid Ch-NAEK and the Codon Expansion System Experimental exploration was conducted to investigate the treatment of DMD disease. Following successful synthesis, identification and activity evaluation of the three ionic liquids Ch-NAEK, Ch-pAcF and Ch-Anap, Ch-NAEK was selected as the preferred ionic liquid for subsequent disease treatment. mdx mice with DMD disease were initially intramuscularly injected with AAV-MmpylRS-tRNA virus and subsequently orally administered with Ch-NAEK (at a mass volume fraction of 70%) daily for four weeks. Muscle tissue samples were collected in the first, second, and fourth weeks for detection of Dystrophin protein restoration. HE pathological staining of mouse muscle tissue, determination of serum CK kinase content, and testing of mouse grip strength were performed.
mdx mice, a classic mouse model for DMD (Duchenne Muscular Dystrophy) research, have a nonsense mutation of TAA at the […] of Dystrophin exon, resulting in the failure of normal expression of Dystrophin, and thus leading to symptoms of muscle atrophy in muscle and heart tissues in mice. mdx mice injected with AAV-MmpylRS-tRNA virus were divided into two experimental groups. […] The therapeutic effects were evaluated at the time points of 1, 2, and 4 weeks after administration. […]

maximum NAEK content in serum [1]: about 1.6 μg/mL | time after oral administration at which serum NAEK content approached zero [1]: 8 h | time for complete metabolism of NAEK [1]: 6 h | time of maximum serum NAEK content after oral administration [1]: two
Structure (SMILES): [N-]=[N+]=NCCOC(=O)NCCCC[C@H](N)C(=O)O [NAEK-aqueous solution]
restoration of full-length disease protein (Dystrophin) expression, in words (mdx mice): very low
